Laboratory results as given in the supplement of paper PMC10011410.
± gives the standard deviation of the averaged measurements.

How the values were obtained:
U-2 OS [1] = experiment: cell painting activity score (Mahalanobis distance from DMSO wells); higher = stronger morphological phenotype; conditions: 24 h
Protocol: (§1)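 Cell painting in U-2 OS cells (384-well, about 1,500 cells per well), compound exposure 24 h, usually six 2-fold concentrations from 20 to 0.625 uM (some compounds higher or lower). Relative cell count is the cell number per well relative to DMSO wells. Activity score is the Mahalanobis distance of the morphological profile from DMSO control wells. Mean of four technical replicate plates.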

U-2 OS [2] = experiment: relative cell count vs DMSO (cell painting) (fraction of DMSO control); higher = more cells remaining (less cytotoxic); conditions: 24 h
Protocol: as §1

U-2 OS [3] = experiment: AUC of culture confluence over time (live-cell imaging) (AUC (confluence % x time)); higher = more confluent culture (less growth inhibition)
Protocol: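 Live-cell Incucyte imaging of U-2 OS cells in F-12K medium. Compounds were tested mostly at 5, 10 and 20 uM, and cells were imaged every 4 h for up to 60 h. Value is the area under the curve of phase-contrast confluence over time.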

Compound | cell painting activity score (U-2 OS [1]; 0.625 µM) | cell painting activity score (U-2 OS [1]; 1.25 µM) | cell painting activity score (U-2 OS [1]; 2.5 µM) | cell painting activity score (U-2 OS [1]; 5 µM) | cell painting activity score (U-2 OS [1]; 10 µM) | cell painting activity score (U-2 OS [1]; 20 µM) | relative cell count (U-2 OS [2]; 0.625 µM) | relative cell count (U-2 OS [2]; 1.25 µM) | relative cell count (U-2 OS [2]; 2.5 µM) | relative cell count (U-2 OS [2]; 5 µM) | relative cell count (U-2 OS [2]; 10 µM) | relative cell count (U-2 OS [2]; 20 µM) | AUC of culture confluence over time (U-2 OS [3]; 5 µM) | AUC of culture confluence over time (U-2 OS [3]; 10 µM) | AUC of culture confluence over time (U-2 OS [3]; 20 µM) | cell painting activity score (U-2 OS [1]; 0.019532 µM) | cell painting activity score (U-2 OS [1]; 0.07812 µM) | cell painting activity score (U-2 OS [1]; 0.3124 µM) | relative cell count (U-2 OS [2]; 0.019532 µM) | relative cell count (U-2 OS [2]; 0.07812 µM) | relative cell count (U-2 OS [2]; 0.3124 µM) | AUC of culture confluence over time (U-2 OS [3]; 1.25 µM)
COc1ccc(/C=C/C(=O)O[C@@H]2[C@H](O[C@@H]3O[C@@H](C)[C@H](O)[C@@H](O)[C@H]3O)[C@@H](O[C@@H]3O[C@@H](C)[C@H](O[C@@H]4OC[C@@H](O[C@@H]5O[C@H](CO)[C@H](O)[C@H](O)[C@H]5O)[C@H](O)[C@H]4O)[C@@H](O)[C@H]3O)[C@H](OC(=O)[C@]34CCC(C)(C)C[C@H]3C3=CC[C@@H]5[C@@]6(C)C[C@H](O)[C@H](O[C@@H]7O[C@H](CO)[C@@H](O)[C@H](O)[C@H]7O)[C@@](C)(C(=O)O)[C@@H]6CC[C@@]5(C)[C@]3(CO)CC4)O[C@@H]2C)cc1 | 8.17 | 11.2 | 12.4 | 9.11 | 10.1 | 37.6 | 1.07 | 0.975 | 0.938 | 0.66 | 0.252 | 0.035 | 43.7 | 44.3 | 14.2 | – | – | – | – | – | – | –
CC(C)=C[C@@H]1CO[C@]23C[C@]4(CO2)[C@H](CC[C@@H]2[C@@]5(C)CC[C@H](O[C@@H]6OC[C@H](O)[C@H](O[C@@H]7O[C@H](CO)[C@@H](O)[C@H](O)[C@H]7O)[C@H]6O[C@@H]6O[C@@H](CO)[C@H](O)[C@H]6O)C(C)(C)[C@@H]5CC[C@]24C)[C@H]3[C@@]1(C)O | 4.86 | 4.19 | 6.77 | 9.86 | 22.5 | 29.1 | 0.956 | 0.977 | 1.02 | 0.762 | 0.393 | 0.0257 | 44.4 | 15.8 | 23.9 | – | – | – | – | – | – | –
CC[C@@H]1/C=C/C=C/C[C@H](C)[C@@H](O)[C@](C)(O)C(=O)[C@H](C)[C@@H](O)[C@H](C)C(=O)[C@H](C)[C@@H](O)[C@H](C)/C=C/C(=O)O[C@H]2[C@@H](C)[C@@H](CC1)O[C@@]1(CC[C@@H](C)[C@@H](C[C@H](C)O)O1)[C@@H]2C | 14.7 | 14.7 | 14.5 | 13.4 | 13.8 | 15 | 0.797 | 0.815 | 0.83 | 0.833 | 0.872 | 0.697 | 28.5 | 29.6 | 17.4 | – | – | – | – | – | – | –
Nc1c[n+](N2CCOCC2)no1.[Cl-] | 6.05 | 6.1 | 9.31 | 10.9 | 12.9 | 15.2 | 0.896 | 0.814 | 0.739 | 0.578 | 0.503 | 0.489 | 49.4 | 49.9 | 48.7 | – | – | – | – | – | – | –
O=C(O)C1=CC(=C(c2ccc(O)c(C(=O)O)c2)c2ccc(O)c(C(=O)O)c2)C=CC1=O | 3.58 | 3.35 | 3.92 | 4.33 | 5.68 | 5.78 | 0.992 | 0.98 | 0.986 | 0.968 | 0.965 | 0.954 | 54.3 | 48.2 | 54 | – | – | – | – | – | – | –
O=C(O)C[C@@H]1C(=O)O[C@H]2[C@@H]3OC(=O)c4cc(O)c(O)c(O)c4-c4c(cc(O)c(O)c4O)C(=O)OC[C@H]2O[C@@H](OC(=O)c2cc(O)c(O)c(O)c2)[C@@H]3OC(=O)c2cc(O)c(O)c3c2[C@H]1[C@H](O)C(=O)O3 | 3.42 | 3.94 | 4.16 | 5.6 | 5.3 | 8.86 | 1.01 | 1 | 1.06 | 1.04 | 1.05 | 1.05 | 45.6 | 45.4 | 41.8 | – | – | – | – | – | – | –
Nc1ccn([C@@H]2O[C@H](CO)[C@@H](O)C2(F)F)c(=O)n1 | 13.7 | 14 | 14.9 | 15.2 | 15.4 | 14.3 | 0.601 | 0.571 | 0.574 | 0.581 | 0.624 | 0.589 | 29.2 | 31.9 | 28.7 | – | – | – | – | – | – | –
C[C@@H]1O[C@@H](O[C@H]2[C@H](O[C@H]3CC[C@@]4(C)[C@@H](CC[C@]5(C)[C@@H]4CC=C4[C@@H]6CC(C)(C)CC[C@]6(C(=O)O)CC[C@]45C)[C@]3(C)CO)OC[C@H](O[C@@H]3O[C@H](CO)[C@@H](O)[C@H](O)[C@H]3O)[C@@H]2O)[C@H](O)[C@H](O)[C@H]1O | 4.55 | 9.15 | 31.1 | 31.3 | 33.6 | 35.9 | 0.916 | 0.143 | 0.0325 | 0.0427 | 0.0257 | 0.015 | 14.5 | 16.5 | 13 | – | – | – | – | – | – | –
Nc1ncn([C@H]2C[C@H](O)[C@@H](CO)O2)c(=O)n1 | 6.05 | 6.95 | 6.26 | 6.61 | 5.82 | 5.8 | 0.973 | 0.985 | 0.966 | 0.935 | 0.915 | 0.918 | 45.9 | 35.4 | 37.9 | – | – | – | – | – | – | –
CC(=O)O[C@H]1C(=O)[C@@]2(C)[C@H]([C@H](OC(=O)c3ccccc3)[C@]3(O)C[C@H](OC(=O)[C@H](O)[C@@H](NC(=O)c4ccccc4)c4ccccc4)C(C)=C1C3(C)C)[C@]1(OC(C)=O)CO[C@@H]1C[C@@H]2O | – | 24.9 ± 1.2 | – | 23.3 ± 0.75 | – | 24.1 ± 0.87 | – | 0.253 ± 0.051 | – | 0.222 ± 0.03 | – | 0.351 ± 0.024 | 17.4 | – | 20 | 16.9 ± 1.5 | 19 ± 0.57 | 22.1 ± 1.1 | 0.939 ± 0.12 | 0.744 ± 0.19 | 0.413 ± 0.16 | 17
Cc1ccc(C(=O)N(CCCN)[C@@H](c2oc3cc(Cl)ccc3c(=O)c2Cc2ccccc2)C(C)C)cc1.Cl | 13.7 | 13 | 14 | 13.6 | 25.2 | 22 | 0.217 | 0.248 | 0.234 | 0.222 | 0.0425 | 0.029 | 20.2 | 15.1 | 11.9 | – | – | – | – | – | – | –
S=P(N1CC1)(N1CC1)N1CC1 | 3.3 | 3.39 | 3.97 | 4.44 | 5.38 | 7.45 | 1.06 | 0.967 | 0.939 | 0.904 | 0.942 | 0.856 | 39.2 | 31 | 32.9 | – | – | – | – | – | – | –
CN(C)/N=N/c1nc[nH]c1C(N)=O | 4.78 | 4.12 | 4.94 | 4.77 | 3.79 | 4.2 | 1 | 0.996 | 0.98 | 0.966 | 1.02 | 1.02 | 43.6 | 42.3 | 45.2 | – | – | – | – | – | – | –
CCc1c2c(nc3ccc(OC(=O)N4CCC(N5CCCCC5)CC4)cc13)-c1cc3c(c(=O)n1C2)COC(=O)[C@]3(O)CC.Cl | 7.03 | 8.8 | 9.65 | 10.7 | 11 | 11.2 | 0.924 | 0.783 | 0.705 | 0.614 | 0.554 | 0.566 | 31.5 | 25.7 | 22 | – | – | – | – | – | – | –
Cc1cnc(CNC(=O)c2c(=O)c3ccc(N4CCCN(C)CC4)nc3n3c2sc2ccccc23)cn1 | 9.34 | 10.9 | 10.3 | 10.4 | 11.4 | 11 | 0.709 | 0.607 | 0.591 | 0.572 | 0.559 | 0.548 | 33.9 | 34.5 | 35 | – | – | – | – | – | – | –
COc1cc([C@@H]2c3cc4c(cc3[C@H](O)[C@H]3COC(=O)[C@H]23)OCO4)cc(OC)c1OC | 23.6 | 24.1 | 23.9 | 21 | 21 | 22 | 0.209 | 0.195 | 0.195 | 0.199 | 0.187 | 0.179 | 15.2 | 15.6 | 20.8 | – | – | – | – | – | – | –
CN1C(=O)[C@@]23C[C@]4([C@]56C[C@@]78SS[C@@](CO)(C(=O)N7[C@H]5Nc5ccccc56)N(C)C8=O)c5ccccc5N[C@@H]4N2C(=O)[C@]1(CO)SS3 | 16.3 | 21.7 | 17.3 | 16.4 | 7.82 | 14 | 0.176 | 0.0258 | 0.0235 | 0.0282 | 0.0283 | 0.0118 | 9.52 | 13.4 | 13.8 | – | – | – | – | – | – | –
